Calls of active or inactive are those of the source. How the calls were made is not given here.
Tests used:
Assay in all cases: serine hydrolase inhibition in mouse brain membranes, late-stage follow-up, selectivity assay for DAGLb inhibitor project, biochemical, gel-based competitive ABPP, fluorescence, set 2 (AID 602323)
[1] = molecular target: Platelet-activating factor acetylhydrolase (Mus musculus) (UniProt Q60963); settings: mouse brain membrane, PLA2G7, at 1 µM, hits give high values
[2] = molecular target: Monoacylglycerol lipase ABHD6 (Mus musculus) (UniProt Q8R2Y0); settings: mouse brain membrane, at 1 µM, hits give high values
[3] = molecular target: Diacylglycerol lipase-beta (Mus musculus) (UniProt Q91WC9); settings: mouse brain membrane, DAGLb, at 1 µM, hits give high values
Chain of Diacylglycerol lipase-beta (Mus musculus) (Q91WC9 whole entry, looked up): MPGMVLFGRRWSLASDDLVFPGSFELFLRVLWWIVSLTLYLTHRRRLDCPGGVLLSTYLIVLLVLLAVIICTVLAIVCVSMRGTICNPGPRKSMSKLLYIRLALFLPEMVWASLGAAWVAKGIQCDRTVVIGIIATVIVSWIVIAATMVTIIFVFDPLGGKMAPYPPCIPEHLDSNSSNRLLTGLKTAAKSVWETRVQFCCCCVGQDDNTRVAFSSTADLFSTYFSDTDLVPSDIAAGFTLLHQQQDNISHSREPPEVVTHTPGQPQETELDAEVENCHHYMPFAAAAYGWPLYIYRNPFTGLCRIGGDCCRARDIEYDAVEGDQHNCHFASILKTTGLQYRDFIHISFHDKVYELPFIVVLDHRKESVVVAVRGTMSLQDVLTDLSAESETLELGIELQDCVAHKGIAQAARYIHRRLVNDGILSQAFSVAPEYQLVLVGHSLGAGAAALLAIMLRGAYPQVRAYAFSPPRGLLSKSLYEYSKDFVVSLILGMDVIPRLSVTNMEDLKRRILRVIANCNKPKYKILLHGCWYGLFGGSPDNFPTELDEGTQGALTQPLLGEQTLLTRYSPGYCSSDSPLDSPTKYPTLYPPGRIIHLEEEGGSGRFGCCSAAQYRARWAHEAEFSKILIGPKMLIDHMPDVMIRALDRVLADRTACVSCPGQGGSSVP

Chain of Platelet-activating factor acetylhydrolase (Mus musculus) (Q60963 whole entry, looked up): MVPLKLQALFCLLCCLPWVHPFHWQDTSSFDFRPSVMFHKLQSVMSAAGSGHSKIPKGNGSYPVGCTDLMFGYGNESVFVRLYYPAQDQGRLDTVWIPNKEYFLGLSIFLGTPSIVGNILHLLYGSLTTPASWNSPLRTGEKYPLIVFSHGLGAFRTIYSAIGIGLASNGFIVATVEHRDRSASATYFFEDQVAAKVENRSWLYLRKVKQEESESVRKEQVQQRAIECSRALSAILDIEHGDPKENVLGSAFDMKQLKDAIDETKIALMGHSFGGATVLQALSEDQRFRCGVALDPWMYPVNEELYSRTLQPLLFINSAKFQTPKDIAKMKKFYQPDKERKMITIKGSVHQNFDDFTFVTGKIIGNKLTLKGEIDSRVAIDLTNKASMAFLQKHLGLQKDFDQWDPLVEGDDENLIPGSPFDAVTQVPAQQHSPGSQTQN
Chain of Monoacylglycerol lipase ABHD6 (Mus musculus) (Q8R2Y0 whole entry, looked up): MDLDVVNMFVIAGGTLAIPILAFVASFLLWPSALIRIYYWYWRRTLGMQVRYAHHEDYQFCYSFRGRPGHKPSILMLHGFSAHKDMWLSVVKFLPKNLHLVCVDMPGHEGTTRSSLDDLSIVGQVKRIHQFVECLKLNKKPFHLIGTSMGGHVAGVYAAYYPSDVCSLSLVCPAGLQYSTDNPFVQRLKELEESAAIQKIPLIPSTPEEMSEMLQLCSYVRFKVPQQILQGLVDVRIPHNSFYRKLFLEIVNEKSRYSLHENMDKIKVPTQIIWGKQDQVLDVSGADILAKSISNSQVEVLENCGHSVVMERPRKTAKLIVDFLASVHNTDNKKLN

| inhibition [1] | inhibition [2] [%] | inhibition [3] | Compound |
| --- | --- | --- | --- |
| 95% | 95 | 90% | CC(C)CN(CCc1ccccc1)C(=O)n1cc(-c2ccc(OC(F)(F)F)cc2)nn1 |
| 20% (inactive) | 95 | 90% | O=C(N1CCCCC1Cc1ccccc1)n1cc(-c2ccc(-c3ccccc3CO)cc2)nn1 (stereo not given) |
| 20% (inactive) | 90 | 25% (inactive) | O=C(N1CCCCC1Cc1ccccc1)n1cc(-c2ccc(-c3ccc4c(c3)OCO4)cc2)nn1 (stereo not given) |
| 90% | 90 | 90% | O=C(N1CCCCC1Cc1ccccc1)n1cc(-c2ccc(-c3ccccc3Cl)cc2)nn1 (stereo not given) |
| 0% (inactive) | 90 | 25% (inactive) | O=C(N1CCCCC1Cc1ccccc1)n1cc(-c2ccc(-c3cccc(CO)c3)cc2)nn1 (stereo not given) |
| 45% (inactive) | 90 | 60% | O=C(N1CCCCC1Cc1ccccc1)n1cc(-c2ccc(-c3ccoc3)cc2)nn1 (stereo not given) |
| 25% (inactive) | 90 | 75% | O=C(N1CCCCC1Cc1ccccc1)n1cc(-c2ccc(-c3ccccc3C(F)(F)F)cc2)nn1 (stereo not given) |
| 95% | 98 | 85% | O=C(N1CCCCC1Cc1ccccc1)n1cc(-c2ccc(Br)cc2)nn1 (stereo not given) |
| 95% | 95 | 95% | O=C(N(CCc1ccccc1)Cc1ccco1)n1cc(-c2ccc(OC(F)(F)F)cc2)nn1 |
| 50% | 80 | 25% (inactive) | O=C(N1CCCCC1Cc1ccccc1)n1cc(-c2ccc(-c3ccc(C(F)(F)F)cc3)cc2)nn1 (stereo not given) |
| 0% (inactive) | 90 | 80% | O=C(N1CCCCC1Cc1ccccc1)n1ncc(C(O)(c2ccccc2)c2ccccc2)n1 (stereo not given) |
| 90% | 90 | 90% | O=C(N1CCCCC1Cc1ccccc1)n1cc(-c2ccc(OC(F)(F)F)cc2)nn1 (stereo not given) |
| 95% | 90 | 95% | CC(C)(C)OC(=O)NCCCCCN(CCc1ccccc1)C(=O)n1cc(-c2ccc(OC(F)(F)F)cc2)nn1 |
| 95% | 98 | 85% | O=C(N1CCCCC1Cc1ccccc1)n1cc(-c2cc(F)cc(F)c2)nn1 (stereo not given) |
| 60% | 95 | 80% | O=C(N1CCCCC1Cc1ccccc1)n1cc(-c2ccc(-c3ccccc3OC(F)(F)F)cc2)nn1 (stereo not given) |
| 30% (inactive) | 95 | 75% | O=C(N1CCCCC1Cc1ccccc1)n1cc(-c2cccc(-c3ccccc3)c2)nn1 (stereo not given) |
| 30% (inactive) | 95 | 95% | O=C(c1ccc(-c2cn(C(=O)N3CCCCC3Cc3ccccc3)nn2)cc1)N1CCCCC1 (stereo not given) |
| 25% (inactive) | 95 | 85% | COc1ccccc1-c1ccc(-c2cn(C(=O)N3CCCCC3Cc3ccccc3)nn2)cc1 (stereo not given) |
| 80% | 90 | 80% | Cc1ccccc1-c1ccc(-c2cn(C(=O)N3CCCCC3Cc3ccccc3)nn2)cc1 (stereo not given) |
| 25% (inactive) | 95 | 45% (inactive) | O=C(N1CCCCC1Cc1ccccc1)n1cc(-c2ccc(-c3cccc(C(F)(F)F)c3)cc2)nn1 (stereo not given) |
| 40% (inactive) | 95 | 75% | O=C(N1CCCCC1Cc1ccccc1)n1cc(-c2ccccc2-c2ccccc2)nn1 (stereo not given) |
| 50% | 90 | 20% (inactive) | O=C(N1CCCCC1Cc1ccccc1)n1cc(-c2ccc(-c3ccc(OC(F)(F)F)cc3)cc2)nn1 (stereo not given) |
| 0% (inactive) | 90 | 20% (inactive) | O=C(c1ccc(-c2ccc(-c3cn(C(=O)N4CCCCC4Cc4ccccc4)nn3)cc2)cc1)N1CCCCC1 (stereo not given) |
| 90% | 70 | 50% | O=C(N1CCCCC1Cc1ccccc1)n1ncc(-c2ccc(OC(F)(F)F)cc2)n1 (stereo not given) |

| Compound | inhibition [1] | inhibition [2] [%] | inhibition [3] |
| --- | --- | --- | --- |
| O=C(N1CCCCC1Cc1ccccc1)n1cc(-c2ccc(-c3ccccc3)cc2)nn1 (stereo not given) | 40% (inactive) | 95 | 80% |

— PubChem BioAssay AID602323 (The Scripps Research Institute Molecular Screening Center, 2012)
